Data: patent EP3553052A1, “5-OXO-4,5-DIHYDRO-1H-1,2,4-TRIAZOL DERIVATIVES FOR THE TREATMENT OF CANCER” (Bayer AG, priority 2018, dated 2019)

Assays:
human DHODH = target: T1, human DHODH (Homo sapiens, UniProt Q02127); assay: DHODH enzymatic assay - 1 (DCIP bleaching); assay type: biochemical; details: 2 nM DHODH, 1 mM dihydroorotate, 0.1 mM decylubiquinone, 0.06 mM DCIP, pH 8.0, 32 degree celsius; read-out: Target IC50
T1 construct: purchased Novus NBP1-98916
Description: The assay was conducted in buffer containing 50 mM Tris, 0.1% Triton X-100, 150 mM potassium chloride, 2 nM DHODH, 1 mM dihydroorotate, 0.1 mM decylubiquinone, 0.06 mM DCIP, and 2% DMSO at pH 8.0 at 32 degree celsius. The reaction was initiated by addition of substrates. Enzyme activity was monitored kinetically by the reduction in DCIP absorbance at 600 nm. Purified recombinant human DHODH enzyme was purchased from Novus (cat. no. NBP1-98916). Other chemicals were purchased from Sigma-Aldrich. Absorbance measurements were obtained using a BMG clarion star plate-reading spectrophotometer. Table 1: DHODH enzymatic assay : IC50 values of examples in in vitro assay 1

THP-1 cells = assay: THP-1 proliferation assay - 1 (AML); assay type: cell-based; details: Homo sapiens, 72h incubation, CellTiter-Glo cell viability, read-out: Target IC50
Description: In vitro Assay 2: THP-1 proliferation assay - 1 (AML) 2000 cells/well of THP-1 cells were seeded in RPMI 1640 with Glutamax (Gibco, #11875-093) and 10% fetal calf serum (Biochrom, #S0615) in 384-well plates. The next day, cells were incubated with different concentrations of test compounds for 72h. Cellular viability was analyzed using CellTiter-Glo® Luminescent Cell Viability Assay (Promega, #G7570) according to manufacturer's instructions.

T1 sequence (Q02127 whole entry): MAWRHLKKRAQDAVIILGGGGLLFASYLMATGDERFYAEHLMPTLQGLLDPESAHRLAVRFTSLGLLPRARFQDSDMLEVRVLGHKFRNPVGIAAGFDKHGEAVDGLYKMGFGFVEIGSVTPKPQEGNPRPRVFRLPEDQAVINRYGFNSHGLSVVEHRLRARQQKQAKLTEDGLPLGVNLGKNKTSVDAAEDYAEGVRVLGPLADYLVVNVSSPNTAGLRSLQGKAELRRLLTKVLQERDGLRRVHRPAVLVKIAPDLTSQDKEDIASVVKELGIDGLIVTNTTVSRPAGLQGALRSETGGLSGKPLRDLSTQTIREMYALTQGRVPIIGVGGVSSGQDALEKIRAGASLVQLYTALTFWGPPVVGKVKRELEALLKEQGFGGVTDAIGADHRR

SMILES: CCCCOc1cc(-n2nc(-c3ccccc3Cl)[nH]c2=O)c(F)cc1C(=O)Nc1c(F)cccc1Cl [Compound I, 2-butoxy-N-(2-chloro-6-fluorophenyl)-4-[3-(2-chlorophenyl)-5-oxo-4,5-dihydro-1H-1,2,4-triazol-1-yl]-5-fluorobenzamide]
- IC50 (human DHODH): 3000 nM
- IC50 (THP-1 cells): 305 nM
